Format in all cases: cell-based
Assay [1] has as its target T1, recombinant human ghrelin receptor (HEK293/GRLN) (Homo sapiens, UniProt Q92847).
T1 construct: expressed in transfected cells
Put plainly: Ghrelin inverse agonist potency (EC50) with IP-1 (IP-One HTRF) assay. To be noted: IP-1 assay. In a few lines:
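HEK293/GRLN cells were seeded 18-22 hours before the test, then exposed to compound in stimulation buffer for 1 hour at 37° C, 5% CO2. IP-1 was detected by IP-One HTRF (IP1-d2 plus Tb-cryptate, 1 hour RT), reading 620 and 665 nm; the inverse agonist EC50 was derived from this.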

Assay [2] addresses T2, GHSR-1a (HEK293/GHSR1a cell line) (Homo sapiens, UniProt Q92847).
T2 construct: expressed in transfected cells; host or cells: HEK293/GHSR1a cell line
The assay is described as follows: Ghrelin antagonist potency (IC50) with calcium FLIPR assay, ghrelin 10 nM. Put shortly: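 Potency values were estimated from dose-response curves of relative fluorescence, with calcium followed for 2 minutes after additions at t=20 sec. Agonism was tested with compound alone. Antagonism was tested with compound plus 10 nM ghrelin and scored as a reduction of the ghrelin signal.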

The target in assay [3] is T2, GHSR-1a (HEK293/GHSR1a cell line). The assay is described as follows: Ghrelin agonist potency (EC50) with calcium FLIPR assay. As for the experimental part: Evaluation of Ghrelin Agonist (EC50) and Antagonist Potency (IC50) with Calcium FLIPR Assay:
The intracellular calcium assay was carried out in a 384-well format FLIPR™ (Molecular Device) HEK293/GHSR1a cell line. Cells were seeded 24 hr prior to the experiments at an optimal density per well. Preincubation with selected calcium dye lasted for 30-60 min at room temperature or 37° C. Test compounds, dissolved in DMSO, were added at the appropriate time and incubated for 15 min followed by the addition of ghrelin with FlexStation or FLIPR. Relative fluorescence was monitored by the FLIPR™ Molecular Device. EC50 and IC50 values were estimated from dose-response data using GraphPad Prism software. To check for GHSR-1a agonism, the compound was added at t=20 sec. and the calcium response was followed for 2 minutes. To check for GHSR-1a antagonism, the compound and Ghrelin (10 nM) were added to the cells at t=20 sec. and the calcium response was measured for 2 minutes. The potency of the antagonist was calculated by its ability to reduce the ghrelin response. Dose-response curves were made for relevant antagonists.

[4] abbreviates: ghrelin inverse agonist potency, read-out: Activity EC50.
[5] abbreviates: ghrelin antagonist potency, read-out: Activity IC50.
[6] abbreviates: ghrelin agonist potency, read-out: Activity EC50/EMax.
The mark [7] stands for this setting: HEK293/GRLN, read-out: Activity EC50 (ghrelin inverse agonist potency).
The mark [8] stands for this setting: HEK293/GHSR1a, ghrelin 10 nM, read-out: Activity IC50 (ghrelin antagonist potency).
The mark [9] stands for this setting: HEK293/GHSR1a, read-out: Activity EC50/EMax: EC50 (ghrelin agonist potency).

Experimental findings from US10501479B2, “Benzenesulfonyl-asymmetric ureas and medical uses thereof” (HELSINN HEALTHCARE SA, priority 2016, dated 2019) are described below.

Structures are written as SMILES. Read-outs that look alike come from different tables or passages of the source.

T2 sequence (Q92847 whole entry): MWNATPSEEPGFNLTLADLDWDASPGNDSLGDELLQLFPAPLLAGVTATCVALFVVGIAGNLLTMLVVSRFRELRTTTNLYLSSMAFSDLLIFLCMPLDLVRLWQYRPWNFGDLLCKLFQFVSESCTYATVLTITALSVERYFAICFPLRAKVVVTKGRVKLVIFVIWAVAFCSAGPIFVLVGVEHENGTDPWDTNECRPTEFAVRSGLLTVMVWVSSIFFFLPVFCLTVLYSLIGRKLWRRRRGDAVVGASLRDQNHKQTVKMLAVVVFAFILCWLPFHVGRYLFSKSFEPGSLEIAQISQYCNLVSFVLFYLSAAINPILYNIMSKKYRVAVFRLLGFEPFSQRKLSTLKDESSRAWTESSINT
T1 sequence (Q92847 whole entry): as above

By IC50 is commonly meant the concentration that gives 50% inhibition. Take `Cc1ccc(C(C)NC(=O)Nc2ccc(S(=O)(=O)Cc3ccc4c(c3)CNC4)cc2)cc1C(F)F` (stereo not drawn) [H1521, 1-(1-(3-(difluoromethyl)-4-methylphenyl)ethyl)-3-(4-((isoindolin-5-ylmethyl)sulfonyl)phenyl)urea]: the results for the EC50 in assay [1] (setting [4]) and in assay [3] (setting [6]) were 17.8 nM and greater than 30 µM, respectively. For the same molecule, the IC50 in assay [2] (setting [5]) was found to be 52.3 nM.

With `CC(NC(=O)Nc1ccc(S(=O)(=O)Cc2ccc3c(c2)CN(C)C3)c(-c2ncco2)c1)c1ccccc1` (stereo not drawn) [H1508, 1-(4-(((2-methylisoindolin-5-yl)methyl)sulfonyl)-3-(oxazol-2-yl)phenyl)-3-(1-phenylethyl)urea], the EC50 is 30 nM in assay [1] (setting [4]) and greater than 30 µM in assay [3] (setting [6]). Moreover, in assay [2] (setting [5]), the IC50 came out at 61.8 nM.

`CC1Cc2cc(CS(=O)(=O)c3ccc(NC(=O)N(C)Cc4ccccc4)cc3)ccc2CN1` (stereo not drawn) [H1416, 1-benzyl-1-methyl-3-(4-(((3-methyl-1,2,3,4-tetrahydroisoquinolin-6-yl)methyl)sulfonyl)phenyl)urea]: the EC50 was 26.6 nM in assay [1] (setting [7]) and greater than 30 µM in assay [3] (setting [9]). The IC50 in assay [2] (setting [8]) was 1040 nM.

Take `C[C@@H](NC(=O)Nc1ccc(S(=O)(=O)Cc2ccc3c(c2)C(F)CN(C)C3)cc1)c1ccccc1` (stereo partly drawn) [H1539, 1-(4-(((4-fluoro-2-methyl-1,2,3,4-tetrahydroisoquinolin-6-yl)methyl)sulfonyl)phenyl)-3-((R)-1-phenylethyl)urea]: the EC50 in assay [1] (setting [4]) was 263 nM; in assay [3] (setting [6]), greater than 30 µM. In addition, the IC50 in assay [2] (setting [5]) is 8050 nM.

Take `COc1cc(S(=O)(=O)Cc2ccc3c(c2)CCNC3)ccc1NC(=O)N(C)C(C)c1ccccc1` (stereo not drawn) [H1413, 3-(2-methoxy-4-(((1,2,3,4-tetrahydroisoquinolin-6-yl)methyl)sulfonyl)phenyl)-1-methyl-1-(1-phenylethyl)urea]: the figures for the EC50 in assay [1] (setting [7]) and in assay [3] (setting [9]) were 225 nM and greater than 30 µM, respectively. Further, in assay [2] (setting [8]), the IC50 was determined as 681 nM.

Regarding `CC(NC(=O)Nc1ccc(S(=O)(=O)Cc2ccc3c(c2)CNC3)cc1Br)c1ccccc1` (stereo not drawn) [H1485, 1-(2-bromo-4-((isoindolin-5-ylmethyl)sulfonyl)phenyl)-3-(1-phenylethyl)urea], the EC50 in assay [1] (setting [4]) was 10.2 nM; in assay [3] (setting [6]), greater than 30 µM. For the same molecule, the IC50 in assay [2] (setting [5]) stood at 19.1 nM.

On to `CC(=O)N1CC(NC(=O)Nc2ccc(S(=O)(=O)Cc3ccc4c(c3)CNC4)cc2)c2ccccc21` (stereo not drawn) [H1353, 1-(1-acetylindolin-3-yl)-3-(4-((isoindolin-5-ylmethyl)sulfonyl)phenyl)urea], for which the EC50 was 8230 nM in assay [1] (setting [7]) and greater than 30 µM in assay [3] (setting [9]). The IC50 in assay [2] (setting [8]) stood at 5100 nM.

As for `CC(NC(=O)Nc1ccc(S(=O)(=O)Cc2ccc3c(c2F)CCN(C)C3)cc1)c1cccc(Cl)c1Cl` (stereo not drawn) [H1367, 1-(1-(2,3-dichlorophenyl)ethyl)-3-(4-(((5-fluoro-2-methyl-1,2,3,4-tetrahydroisoquinolin-6-yl)methyl)sulfonyl)phenyl)urea], the figures for the EC50 in assay [1] (setting [7]) and in assay [3] (setting [9]) were 3.3 nM and greater than 30 µM, respectively. The IC50 in assay [2] (setting [8]) was 21.2 nM.

Regarding `CC(NC(=O)Nc1ccc(S(=O)(=O)Cc2ccc3c(c2)CN(C)C3)cc1)c1cncnc1` (stereo not drawn) [H1309, 1-(4-(((2-methylisoindolin-5-yl)methyl)sulfonyl)phenyl)-3-(1-(pyrimidin-5-yl)ethyl)urea], the results for the EC50 in assay [1] (setting [7]) and in assay [3] (setting [9]) were 1840 nM and greater than 30 µM, respectively. For the same molecule, in assay [2] (setting [8]), the IC50 worked out at 4500 nM.

In the case of `COc1cc2c(cc1CS(=O)(=O)c1ccc(NC(=O)NC(C)c3cccc(Cl)c3Cl)cc1)CCNC2` (stereo not drawn) [H1392, 1-(1-(2,3-dichlorophenyl)ethyl)-3-(4-(((7-methoxy-1,2,3,4-tetrahydroisoquinolin-6-yl)methyl)sulfonyl)phenyl)urea], the EC50 in assay [1] (setting [7]) is 52.6 nM; in assay [3] (setting [9]) it was greater than 30 µM. For the same molecule, in assay [2] (setting [8]), the IC50 stood at 98.8 nM.

Turning to `CC(c1ccccc1)N(O)C(=O)Nc1ccc(S(=O)(=O)Cc2ccc3c(c2)CN(C)C3)cc1` (stereo not drawn) [H1471, 1-hydroxy-3-(4-(((2-methylisoindolin-5-yl)methyl)sulfonyl)phenyl)-1-(1-phenylethyl)urea], the EC50 in assay [1] (setting [4]) was 3.89 nM; in assay [3] (setting [6]), greater than 30 µM. For the same molecule, the IC50 in assay [2] (setting [5]) amounted to 11.8 nM.

Turning to `COc1cc(S(=O)(=O)Cc2ccc(CO)cc2)ccc1NC(=O)NC(C)c1ccccc1` (stereo not drawn) [H1433, 1-(4-((4-(hydroxymethyl)benzyl)sulfonyl)-2-methoxyphenyl)-3-(1-phenylethyl)urea], the figures for the EC50 in assay [1] (setting [7]) and in assay [3] (setting [9]) were 473 nM and greater than 30 µM, respectively. The IC50 in assay [2] (setting [8]) came to 3120 nM.

As to `CC(NC(=O)Nc1ccc(S(=O)(=O)Cc2ccc3c(c2)CNC3)cc1)c1cccnc1` (stereo not drawn) [H1273, 1-(4-((isoindolin-5-ylmethyl)sulfonyl)phenyl)-3-(1-(pyridin-3-yl)ethyl)urea], the EC50 in assay [1] (setting [7]) was 192 nM; in assay [3] (setting [9]), greater than 30 µM. Further, in assay [2] (setting [8]), the IC50 stood at 1030 nM.

For the molecule `CC(NC(=O)Nc1ccc(S(=O)(=O)Cc2ccc3c(c2)CN(C)C3)cc1)c1cc(N2CCOCC2)ccc1Cl` (stereo not drawn) [H1284, 1-(1-(2-chloro-5-morpholinophenyl)ethyl)-3-(4-(((2-methylisoindolin-5-yl)methyl)sulfonyl)phenyl)urea], the results for the EC50 in assay [1] (setting [7]) and in assay [3] (setting [9]) were 371 nM and greater than 30 µM, respectively. Also, the IC50 in assay [2] (setting [8]) was 1900 nM.

In the case of `CC(c1ccccc1)N(C)C(=O)Nc1ccc(S(=O)(=O)Cc2ccc3c(c2F)CNC3)cc1` (stereo not drawn) [H1409, 3-(4-(((4-fluoroisoindolin-5-yl)methyl)sulfonyl)phenyl)-1-methyl-1-(1-phenylethyl)urea], the EC50 in assay [1] (setting [7]) is 74.5 nM; in assay [3] (setting [9]), greater than 30 µM. Also, in assay [2] (setting [8]), the IC50 came out at 282 nM.

Consider `CC(NC(=O)Nc1ccc(S(=O)(=O)Cc2ccc3c(c2)CNC3)cc1)c1cc(N2CCOCC2)ccc1Cl` (stereo not drawn) [H1283, 1-(1-(2-chloro-5-morpholinophenyl)ethyl)-3-(4-((isoindolin-5-ylmethyl)sulfonyl)phenyl)urea], for which the figures for the EC50 in assay [1] (setting [7]) and in assay [3] (setting [9]) were 201 nM and greater than 30 µM, respectively. For the same molecule, the IC50 in assay [2] (setting [8]) is 379 nM.

For the molecule `CN1Cc2ccc(CS(=O)(=O)c3ccc(NC(=O)N(O)Cc4ccccc4)cc3)cc2C1` [H1503, 1-benzyl-1-hydroxy-3-(4-(((2-methylisoindolin-5-yl)methyl)sulfonyl)phenyl)urea], the EC50 was 101 nM in assay [1] (setting [4]) and greater than 30 µM in assay [3] (setting [6]). Moreover, the IC50 in assay [2] (setting [5]) was found to be 512 nM.

On to `CN1CCc2cc(CS(=O)(=O)c3ccc(NC(=O)NCc4cccc(Cl)c4Cl)cc3)ccc2C1` [H1349, 1-(2,3-dichlorobenzyl)-3-(4-(((2-methyl-1,2,3,4-tetrahydroisoquinolin-6-yl)methyl)sulfonyl)phenyl)urea], for which the results for the EC50 in assay [1] (setting [7]) and in assay [3] (setting [9]) were 29 nM and greater than 30 µM, respectively. In addition, the IC50 in assay [2] (setting [8]) came to 15.3 nM.

For the molecule `CC1c2ccccc2CCN1C(=O)Nc1ccc(S(=O)(=O)Cc2ccc3c(c2)CN(C)C3)cc1` (stereo not drawn) [H1418, 1-methyl-N-(4-(((2-methylisoindolin-5-yl)methyl)sulfonyl)phenyl)-3,4-dihydroisoquinoline-2(1H)-carboxamide], the EC50 was 69.5 nM in assay [1] (setting [7]) and greater than 30 µM in assay [3] (setting [9]). Also, the IC50 in assay [2] (setting [8]) was 2700 nM.

Consider `CC(NC(=O)Nc1ccc(S(=O)(=O)CC2=CCC3CCC2N3C(C)C)cc1)c1cccc(Cl)c1Cl` (stereo not drawn) [H1514, 1-(1-(2,3-dichlorophenyl)ethyl)-3-(4-(((8-isopropyl-8-azabicyclo[3.2.1]oct-2-en-2-yl)methyl)sulfonyl)phenyl)urea], for which the results for the EC50 in assay [1] (setting [4]) and in assay [3] (setting [6]) were 17.6 nM and greater than 30 µM, respectively. In assay [2] (setting [5]), the IC50 came out at 16200 nM.
